Measurements reported in ChEMBL document CHEMBL1201862, “PubChem BioAssay data set” (2004).
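Dose response: 5 concentrations. Exposure: 48 h. Format: 96-well plates. Endpoint: linear interpolation; highest concentration if not reached. Here, GI50 denotes the concentration required for 50% inhibition of growth.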 Activity calls are given as the source filed them. Cut-off read from the data, not from the text of the source: active = GI50 up to about 1.1 µM and inactive = higher.

How the values were obtained:
Test in all cases: NCI anticancer screen, dose series, 48 h
M14 = system: M14
COLO 205 = system: COLO 205
HL-60 = system: HL-60
NCI/ADR-RES = system: NCI/ADR-RES
SK-OV-3 = system: SK-OV-3
A549 = system: A549
HOP-92 = system: HOP-92
MDA-MB-231 = system: MDA-MB-231
PC-3 = system: PC-3
UO-31 = system: UO-31
K562 = system: K562
MOLT-4 = system: MOLT-4
NCI-H226 = system: NCI-H226
Malme-3M = system: Malme-3M
786-0 = system: 786-0
OVCAR-4 = system: OVCAR-4
UACC-257 = system: UACC-257
MDA-MB-435 = system: MDA-MB-435
RPMI-8226 = system: RPMI-8226
MDA-N = system: MDA-N

| SMILES | GI50 (M14) | GI50 (COLO 205) | GI50 (HL-60) | GI50 (NCI/ADR-RES) | GI50 (SK-OV-3) | GI50 (A549) | GI50 (HOP-92) | GI50 (MDA-MB-231) | GI50 (PC-3) | GI50 (UO-31) | GI50 (K562) | GI50 (MOLT-4) | GI50 (NCI-H226) | GI50 (Malme-3M) | GI50 (786-0) | GI50 (OVCAR-4) | GI50 (UACC-257) | GI50 (MDA-MB-435) | GI50 (RPMI-8226) | GI50 (MDA-N) |
| --- | --- | --- | --- | --- | --- | --- | --- | --- | --- | --- | --- | --- | --- | --- | --- | --- | --- | --- | --- | --- |
| COc1ccc(/C=C2\CCC(CNc3ccc(S(N)(=O)=O)cc3)C2=O)cc1 (stereo not drawn) | 15.5 µM (inactive) | 16.6 µM (inactive) | 2.15 µM (inactive) | 31.6 µM (inactive) | > 100 µM (inactive) | > 82.8 µM (inactive) | 8.53 µM (inactive) | 16.6 µM (inactive) | 21.9 µM (inactive) | 5.71 µM (inactive) | 1.51 µM (inactive) | 7.69 µM (inactive) | > 69.5 µM (inactive) | 16 µM (inactive) | 4.9 µM (inactive) | 31.6 µM (inactive) | 20 µM (inactive) | 18.3 µM (inactive) | – | – |
| [N-]=[N+]=Nc1c(Cl)c(=O)n(-c2ccccc2)c2ccccc12 | 16.6 µM (inactive) | 25.8 µM (inactive) | 40.3 µM (inactive) | 24.2 µM (inactive) | 37.2 µM (inactive) | 28.4 µM (inactive) | 19.3 µM (inactive) | – | 18.7 µM (inactive) | 23.9 µM (inactive) | 14.8 µM (inactive) | 8.43 µM (inactive) | – | 22.2 µM (inactive) | 18.3 µM (inactive) | 17.4 µM (inactive) | 24.2 µM (inactive) | 19.1 µM (inactive) | 34 µM (inactive) | 24.5 µM (inactive) |
| CCOC(=O)c1c2c(n(-c3ccc(C)cc3)c1C)-c1ccccc1C(=O)C2(C(=O)OCC)C(=O)OCC | 60.3 µM (inactive) | 45.3 µM (inactive) | 6.34 µM (inactive) | 33.4 µM (inactive) | > 76.6 µM (inactive) | 30.7 µM (inactive) | 27.6 µM (inactive) | 32.1 µM (inactive) | 33.7 µM (inactive) | 23.1 µM (inactive) | 14.5 µM (inactive) | 1.71 µM (inactive) | 55 µM (inactive) | 30.1 µM (inactive) | 50.6 µM (inactive) | 30.8 µM (inactive) | 33.8 µM (inactive) | 29.1 µM (inactive) | 14 µM (inactive) | – |
| CC(C)(C)OC(=O)N1CCCC1C(=O)NCCNc1ccc(NCCNC(=O)C2CCCN2C(=O)OC(C)(C)C)c2c1C(=O)c1ccccc1C2=O (stereo not drawn) | 15.8 µM (inactive) | 14.4 µM (inactive) | > 100 µM (inactive) | 10.4 µM (inactive) | 19.7 µM (inactive) | 15.8 µM (inactive) | 13.8 µM (inactive) | 13.2 µM (inactive) | 11.1 µM (inactive) | – | < 0.01 µM (active) | 9.86 µM (inactive) | 18.5 µM (inactive) | 15.1 µM (inactive) | 14.8 µM (inactive) | 15 µM (inactive) | 14.5 µM (inactive) | 14.1 µM (inactive) | < 0.01 µM (active) | – |
| O=C1C=CC(=C(c2ccccc2)c2ccc(O)cc2)C=C1 | 24.2 µM (inactive) | 14.9 µM (inactive) | 8.15 µM (inactive) | 32.7 µM (inactive) | – | 17.4 µM (inactive) | 18 µM (inactive) | 15.2 µM (inactive) | 22.1 µM (inactive) | 14.8 µM (inactive) | 15.1 µM (inactive) | 3.33 µM (inactive) | 19.5 µM (inactive) | 13.6 µM (inactive) | 18.7 µM (inactive) | 14.3 µM (inactive) | 16.9 µM (inactive) | 15.7 µM (inactive) | 9.12 µM (inactive) | – |
| COc1ccc(NC(=S)N/N=C/c2c(C)n(C)n(-c3ccccc3)c2=O)cc1 | > 100 µM (inactive) | > 100 µM (inactive) | > 100 µM (inactive) | 42.9 µM (inactive) | 28.6 µM (inactive) | – | 22.2 µM (inactive) | 17.5 µM (inactive) | 69.8 µM (inactive) | 26.4 µM (inactive) | 26.2 µM (inactive) | > 100 µM (inactive) | 35.6 µM (inactive) | – | 24.1 µM (inactive) | 19.1 µM (inactive) | > 100 µM (inactive) | 51.4 µM (inactive) | > 100 µM (inactive) | – |
| CCCSc1ccc2[nH]c(/N=C/c3ccco3)cc2c1 | 44.6 µM (inactive) | 22 µM (inactive) | 29.8 µM (inactive) | 27.5 µM (inactive) | 30.5 µM (inactive) | 77.6 µM (inactive) | 81.8 µM (inactive) | – | 43.7 µM (inactive) | 41.9 µM (inactive) | – | – | – | 67.9 µM (inactive) | 40.2 µM (inactive) | 39.4 µM (inactive) | 33.6 µM (inactive) | 17.8 µM (inactive) | 0.184 µM (active) | – |
| CCCC[N+](CCCC)(CCCC)CCCC.O=S(=O)([O-])ON=C1c2ccccc2-c2ccccc21 | > 100 µM (inactive) | > 100 µM (inactive) | 36 µM (inactive) | > 100 µM (inactive) | > 100 µM (inactive) | > 100 µM (inactive) | > 100 µM (inactive) | > 100 µM (inactive) | > 100 µM (inactive) | > 100 µM (inactive) | > 100 µM (inactive) | > 100 µM (inactive) | > 100 µM (inactive) | – | > 100 µM (inactive) | > 100 µM (inactive) | > 100 µM (inactive) | > 100 µM (inactive) | 50.8 µM (inactive) | – |
| Cc1cccc(Nc2cn(CCOc3ccccc3)c(=O)[nH]c2=O)c1 | 47.2 µM (inactive) | 18.8 µM (inactive) | – | 1.73 µM (inactive) | – | 22.7 µM (inactive) | 35.6 µM (inactive) | – | 23.4 µM (inactive) | 21.4 µM (inactive) | 58.6 µM (inactive) | 36.9 µM (inactive) | – | – | 34.2 µM (inactive) | 69.5 µM (inactive) | 43.7 µM (inactive) | 29.5 µM (inactive) | 34 µM (inactive) | 32.4 µM (inactive) |
| CCCOC(=O)C1C(c2ccc(OC)cc2)NC(c2ccc(OC)cc2)C(C(=O)OCCC)S1(=O)=O (stereo not drawn) | > 10 µM (inactive) | > 10 µM (inactive) | > 100 µM (inactive) | – | > 100 µM (inactive) | > 10 µM (inactive) | > 10 µM (inactive) | – | – | > 10 µM (inactive) | > 10 µM (inactive) | > 10 µM (inactive) | > 10 µM (inactive) | > 10 µM (inactive) | > 10 µM (inactive) | > 10 µM (inactive) | > 10 µM (inactive) | – | > 10 µM (inactive) | – |
| N#CC(C(=O)CCC(=O)Nc1cccc(Cl)c1)c1ccccc1 (stereo not drawn) | > 100 µM (inactive) | > 100 µM (inactive) | > 100 µM (inactive) | – | > 100 µM (inactive) | > 100 µM (inactive) | > 100 µM (inactive) | – | – | > 100 µM (inactive) | > 100 µM (inactive) | > 100 µM (inactive) | > 100 µM (inactive) | > 100 µM (inactive) | > 100 µM (inactive) | > 100 µM (inactive) | > 100 µM (inactive) | – | > 100 µM (inactive) | – |
| CC(C)C1CN1CC(O)Cn1ccnc1[N+](=O)[O-] (stereo not drawn) | > 100 µM (inactive) | > 100 µM (inactive) | > 10 µM (inactive) | > 100 µM (inactive) | > 100 µM (inactive) | > 100 µM (inactive) | – | > 100 µM (inactive) | > 100 µM (inactive) | > 100 µM (inactive) | > 100 µM (inactive) | > 100 µM (inactive) | > 100 µM (inactive) | 62.2 µM (inactive) | > 100 µM (inactive) | > 100 µM (inactive) | > 100 µM (inactive) | – | – | > 100 µM (inactive) |
| CCCCN[C@H]1C2C3CC4C5CC(C42)C1(C)C53 (stereo partly drawn) | > 100 µM (inactive) | > 100 µM (inactive) | > 100 µM (inactive) | – | > 100 µM (inactive) | > 100 µM (inactive) | > 100 µM (inactive) | – | – | > 100 µM (inactive) | > 100 µM (inactive) | > 100 µM (inactive) | > 100 µM (inactive) | > 100 µM (inactive) | > 100 µM (inactive) | > 100 µM (inactive) | > 100 µM (inactive) | – | > 100 µM (inactive) | – |
| O=C(O)c1cc(-c2ccc(-c3ccccc3)cc2)nc2cc3ccccc3cc12 | > 100 µM (inactive) | 54.7 µM (inactive) | 19.1 µM (inactive) | 75.7 µM (inactive) | > 100 µM (inactive) | 19.8 µM (inactive) | 28.2 µM (inactive) | 21.2 µM (inactive) | 17.5 µM (inactive) | 61.9 µM (inactive) | 14.2 µM (inactive) | 11.6 µM (inactive) | 35.7 µM (inactive) | 84.5 µM (inactive) | 25.9 µM (inactive) | 29.4 µM (inactive) | > 100 µM (inactive) | 72.9 µM (inactive) | 29.6 µM (inactive) | – |
| CC(C)=C=CP(=O)(O)c1ccccc1 | > 100 µM (inactive) | > 100 µM (inactive) | > 100 µM (inactive) | > 100 µM (inactive) | > 100 µM (inactive) | > 100 µM (inactive) | > 100 µM (inactive) | – | > 100 µM (inactive) | – | > 100 µM (inactive) | – | > 100 µM (inactive) | > 100 µM (inactive) | > 100 µM (inactive) | > 100 µM (inactive) | > 100 µM (inactive) | > 100 µM (inactive) | – | > 100 µM (inactive) |
| C=CCN(N=O)C(=O)NCCCCC(NC(C)=O)C(=O)NCc1ccccc1 (stereo not drawn) | > 100 µM (inactive) | > 100 µM (inactive) | > 100 µM (inactive) | – | > 100 µM (inactive) | > 100 µM (inactive) | > 100 µM (inactive) | – | – | > 100 µM (inactive) | > 100 µM (inactive) | > 100 µM (inactive) | 42.5 µM (inactive) | > 100 µM (inactive) | > 100 µM (inactive) | > 100 µM (inactive) | > 100 µM (inactive) | – | > 100 µM (inactive) | – |
